Structures can show the parent of a compound that is named as a salt.
Each molecule was assayed against T1, Human Polθ polymerase domain (aa1820-2590) (Homo sapiens, UniProt O75417) (assay: Polθ Polymerase Domain Kinact/KI Assay (PicoGreen)). Settings: 0.8 nM Polθ, 100 nM DNA substrate, kobs vs [I] fit for 2-step covalent inhibitor.
T1 construct: Human Polθ polymerase domain (aa1820-2590) was expressed in E. coli; made in house; host or cells: E. coli
T1 sequence (O75417 1820-2590): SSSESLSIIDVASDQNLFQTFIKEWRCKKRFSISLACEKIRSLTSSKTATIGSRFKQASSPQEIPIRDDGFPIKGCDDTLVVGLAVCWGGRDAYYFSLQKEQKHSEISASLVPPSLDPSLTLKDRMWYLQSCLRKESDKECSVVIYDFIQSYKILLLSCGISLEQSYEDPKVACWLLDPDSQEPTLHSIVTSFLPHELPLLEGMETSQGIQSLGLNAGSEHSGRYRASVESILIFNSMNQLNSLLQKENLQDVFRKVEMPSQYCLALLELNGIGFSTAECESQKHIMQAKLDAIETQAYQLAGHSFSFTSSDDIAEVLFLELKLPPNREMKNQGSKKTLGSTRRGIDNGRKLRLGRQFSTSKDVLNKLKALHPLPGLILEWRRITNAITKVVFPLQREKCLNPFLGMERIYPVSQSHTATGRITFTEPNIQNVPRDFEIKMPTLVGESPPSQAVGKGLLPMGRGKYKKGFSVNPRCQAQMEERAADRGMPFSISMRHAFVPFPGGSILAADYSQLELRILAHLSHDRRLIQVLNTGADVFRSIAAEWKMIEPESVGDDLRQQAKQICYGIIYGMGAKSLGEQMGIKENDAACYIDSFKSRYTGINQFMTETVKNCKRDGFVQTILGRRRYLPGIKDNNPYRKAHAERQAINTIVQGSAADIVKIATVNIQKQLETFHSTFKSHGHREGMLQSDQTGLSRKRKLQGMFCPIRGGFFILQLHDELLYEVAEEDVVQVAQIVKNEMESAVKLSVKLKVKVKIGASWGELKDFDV
Format: biochemical
Outline: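 PicoGreen fluorescence read-out of primer extension; progress curves per inhibitor concentration fitted for kobs, then kobs vs [I] fitted to a two-step covalent model to give Kinact and KI. Conditions: 0.8 nM enzyme, 100 nM DNA substrate, […].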

First: Cc1cc(C(F)(F)F)cc(N2C(=O)C[C@@H]3CN(CCN4CCOC5(C4)CN(C(=O)/C=C/CN(C)C)C5)c4c(F)cccc4N(C)C(=O)[C@H]32)n1 [Example 27, (3aR,11aS)-5-(2-(2-((E)-4-(dimethylamino)but-2-enoyl)-5-oxa-2,8-diazaspiro[3.5]nonan-8-yl)ethyl)-6-fluoro-10-methyl-1-(6-methyl-4-(trifluoromethyl)pyridin-2-yl)-1,3a,4,5,10,11a-hexahydro-2H-benzo[b]pyrrolo[2,3-f][1,4]diazocine-2,11(3H)-dione Hydrochloride]
Second: C=CC(=O)N1CC2(CN(CCN3C[C@H]4CC(=O)N(c5cc(C(F)(F)F)cc(C)n5)[C@@H]4C(=O)N(C)c4cccc(F)c43)CCN2)C1 [Example 30, (3aR,11aS)-5-(2-(2-acryloyl-2,5,8-triazaspiro[3.5]nonan-8-yl)ethyl)-6-fluoro-10-methyl-1-(6-methyl-4-(trifluoromethyl)pyridin-2-yl)-1,3a,4,5,10,11a-hexahydro-2H-benzo[b]pyrrolo[2,3-f][1,4]diazocine-2,11(3H)-dione]
The Kinact/Kl of the first is 1.5-fold higher: 1.05e+06 M⁻¹ s⁻¹ for the first, 690000 M⁻¹ s⁻¹ for the second.

`C=CC(=O)N1CC(N2CCN(CCN3C[C@H]4CC(=O)N(c5cc(C(F)(F)F)cc(C)n5)[C@@H]4C(=O)N(C)c4cccc(F)c43)C[C@@H]2CF)C1` [Example 28, (3aR,11aS)-5-(2-((R)-4-(1-acryloylazetidin-3-yl)-3-(fluoromethyl)piperazin-1-yl)ethyl)-6-fluoro-10-methyl-1-(6-methyl-4-(trifluoromethyl)pyridin-2-yl)-1,3a,4,5,10,11a-hexahydro-2H-benzo[b]pyrrolo[2,3-f][1,4]diazocine-2,11(3H)-dione] and `C=CC(=O)N1CC(N2CCN(CCN3C[C@H]4CC(=O)N(c5cc(C(F)(F)F)cc(C)n5)[C@@H]4C(=O)N(C)c4cccc(F)c43)C[C@H](F)C2)C1` [Example 29, (3aR,11aS)-5-(2-((S)-4-(1-acryloylazetidin-3-yl)-6-fluoro-1,4-diazepan-1-yl)ethyl)-6-fluoro-10-methyl-1-(6-methyl-4-(trifluoromethyl)pyridin-2-yl)-1,3a,4,5,10,11a-hexahydro-2H-benzo[b]pyrrolo[2,3-f][1,4]diazocine-2,11(3H)-dione] are within 1.5-fold of each other in Kinact/Kl: 350000 M⁻¹ s⁻¹ for the first, 320000 M⁻¹ s⁻¹ for the second.

Compared with `C=CC(=O)N1CC2(CN(CCN3C[C@H]4CC(=O)N(c5cc(C(F)(F)F)cc(C)n5)[C@@H]4C(=O)N(C)c4cccc(F)c43)C[C@@H](C)N2)C1` [Example 31, (3aR,11aS)-5-(2-((R)-2-acryloyl-6-methyl-2,5,8-triazaspiro[3.5]nonan-8-yl)ethyl)-6-fluoro-10-methyl-1-(6-methyl-4-(trifluoromethyl)pyridin-2-yl)-1,3a,4,5,10, 11a-hexahydro-2H-benzo [b]pyrrolo[2,3-f][1,4] diazocine-2,11(3H)-dione], `C=CC(=O)N1CC2(CN(CCN3C[C@H]4CC(=O)N(c5cc(C(F)(F)F)cc(C)n5)[C@@H]4C(=O)N(C)c4cccc(F)c43)C[C@H](C)N2)C1` [Example 32, (3aR,11aS)-5-(2-((S)-2-acryloyl-6-methyl-2,5,8-triazaspiro[3.5]nonan-8-yl)ethyl)-6-fluoro-10-methyl-1-(6-methyl-4-(trifluoromethyl)pyridin-2-yl)-1,3a,4,5,10,11a-hexahydro-2H-benzo[b] pyrrolo[2,3-f][1,4] diazocine-2,11(3H)-dione] is 2.7-fold lower in Kinact/Kl: 1.13e+06 M⁻¹ s⁻¹ for the first, 420000 M⁻¹ s⁻¹ for the second.

`C=CC(=O)N1CC2(CN(CCN3C[C@H]4CC(=O)N(c5cc(C(F)(F)F)cc(C)n5)[C@@H]4C(=O)N(C)c4cccc(Cl)c43)CCN2)C1` [Example 33, (3aR,11aS)-5-(2-(2-acryloyl-2,5,8-triazaspiro[3.5]nonan-8-yl)ethyl)-6-chloro-10-methyl-1-(6-methyl-4-(trifluoromethyl)pyridin-2-yl)-1,3a,4,5, 10,11a-hexahydro-2H-benzo[b]pyrrolo [2,3-f][1,4]diazocine-2,11(3H)-dione] and `C=CC(=O)N1CC2(CN(CCN3C[C@H]4CC(=O)N(c5cc(C(F)(F)F)cc(C)n5)[C@@H]4C(=O)N(C)c4cccc(F)c43)CCN2C(C)=O)C1` [Example 36, (3aR,11aS)-5-(2-(5-acetyl-2-acryloyl-2,5,8-triazaspiro[3.5]nonan-8-yl)ethyl)-6-fluoro-10-methyl-1-(6-methyl-4-(trifluoromethyl)pyridin-2-yl)-1,3a,4,5,10,11a-hexahydro-2H-benzo[b]pyrrolo[2,3-f][1,4]diazocine-2,11(3H)-dione] are within 1.5-fold of each other in Kinact/Kl: 1.23e+06 M⁻¹ s⁻¹ for the first, 1.47e+06 M⁻¹ s⁻¹ for the second.

Compared with `C=CC(=O)N1CC2(CN(CCN3C[C@H]4CC(=O)N(c5cc(C(F)(F)F)cc(C)n5)[C@@H]4C(=O)N(C)c4cccc(F)c43)CCN2CC)C1` [Example 35, (3aR,11aS)-5-(2-(2-acryloyl-5-ethyl-2,5,8-triazaspiro[3.5]nonan-8-yl)ethyl)-6-fluoro-10-methyl-1-(6-methyl-4-(trifluoromethyl)pyridin-2-yl)-1,3a,4,5,10,11a-hexahydro-2H-benzo[b]pyrrolo[2,3-f][1,4]diazocine-2,11(3H)-dione], `C=CC(=O)N1CC2(C1)N[C@H](C)CN(CCN1C[C@H]3CC(=O)N(c4cc(C(F)(F)F)cc(C)n4)[C@@H]3C(=O)N(C)c3cccc(F)c31)C2C` (stereo partly drawn) [Example 37a, (3aR,11aS)-5-(2-((6R,9S/R)-2-acryloyl-6,9-dimethyl-2,5,8-triazaspiro[3.5]nonan-8-yl)ethyl)-6-fluoro-10-methyl-1-(6-methyl-4-(trifluoromethyl)pyridin-2-yl)-1,3a,4,5,10,11a-hexahydro-2H-benzo[b]pyrrolo[2,3-f][1,4]diazocine-2,11(3H)-dione] is 1.7-fold higher in Kinact/Kl: 870000 M⁻¹ s⁻¹ for the first, 1.48e+06 M⁻¹ s⁻¹ for the second.

`C=CC(=O)N1CC(n2cnc(CN3C[C@H]4CC(=O)N(c5cc(C(F)(F)F)cc(C)n5)[C@@H]4C(=O)N(C)c4cccc(F)c43)c2)C1` [Example 38, (3aR,11aS)-5-((1-(1-acryloylazetidin-3-yl)-1H-imidazol-4-yl)methyl)-6-fluoro-10-methyl-1-(6-methyl-4-(trifluoromethyl)pyridin-2-yl)-1,3a,4,5,10,11a-hexahydro-2H-benzo[b]pyrrolo[2,3-f][1,4]diazocine-2,11(3H)-dione] and `C=CC(=O)N1CC(n2cnc(CN3C[C@H]4CC(=O)N(c5cc(C(F)(F)F)cc(C)n5)[C@@H]4C(=O)N(C)c4cccc(Cl)c43)c2)C1` [Example 39, (3aR,11aS)-5-((1-(1-acryloylazetidin-3-yl)-1H-imidazol-4-yl)methyl)-6-chloro-10-methyl-1-(6-methyl-4-(trifluoromethyl)pyridin-2-yl)-1,3a,4,5,10,11a-hexahydro-2H-benzo[b]pyrrolo[2,3-f][1,4]diazocine-2,11(3H)-dione] are within 1.5-fold of each other in Kinact/Kl: 2.39e+06 M⁻¹ s⁻¹ for the first, 3.42e+06 M⁻¹ s⁻¹ for the second.

First: C=CC(=O)N1CC(n2cnc(CN3C[C@H]4CC(=O)N(c5cc(C(F)(F)F)cc(C)n5)[C@@H]4C(=O)N(C)c4cc(F)ccc43)c2)C1 [Example 40, (3aR,11aS)-5-((1-(1-acryloylazetidin-3-yl)-1H-imidazol-4-yl)methyl)-8-fluoro-10-methyl-1-(6-methyl-4-(trifluoromethyl)pyridin-2-yl)-1,3a,4,5,10,11a-hexahydro-2H-benzo[b]pyrrolo[2,3-f][1,4]diaocine-2,11(3H)-dione]
Second: C=CC(=O)N1CC(n2ccc(CN3C[C@H]4CC(=O)N(c5cc(C(F)(F)F)cc(C)n5)[C@@H]4C(=O)N(C)c4cc(F)ccc43)n2)C1 [Example 41, (3aR,11aS)-5-((1-(1-acryloylazetidin-3-yl)-1H-pyrazol-3-yl)methyl)-8-fluoro-10-methyl-1-(6-methyl-4-(trifluoromethyl)pyridin-2-yl)-1,3a,4,5,10,11a-hexahydro-2H-benzo[b]pyrrolo[2,3-f][1,4]diazocine-2,11(3H)-dione]
The Kinact/Kl of the first is 1.6-fold lower: 850000 M⁻¹ s⁻¹ for the first, 1.38e+06 M⁻¹ s⁻¹ for the second.

Going from `C=CC(=O)N1CC(n2cnc(CN3C[C@H]4CC(=O)N(c5cc(C(F)(F)F)cc(C)n5)[C@@H]4C(=O)N(C)c4cccc(Cl)c43)n2)C1` [Example 42, (3aR,11aS)-5-((1-(1-acryloylazetidin-3-yl)-1H-1,2,4-triazol-3-yl)methyl)-6-chloro-10-methyl-1-(6-methyl-4-(trifluoromethyl)pyridin-2-yl)-1,3a,4,5,10,11a-hexahydro-2H-benzo[b]pyrrolo[2,3-f][1,4]diazocine-2,11(3H)-dione] to `Cc1cc(C(F)(F)F)cc(N2C(=O)C[C@@H]3CN(CCCOC4CN(C(=O)/C=C/CN(C)C)C4)c4c(F)cccc4N(C)C(=O)[C@H]32)n1` [Example 43, (3aR,11aS)-5-(3-((1-((E)-4-(dimethylamino)but-2-enoyl)azetidin-3-yl)oxy)propyl)-6-fluoro-10-methyl-1-(6-methyl-4-(trifluoromethyl)pyridin-2-yl)-1,3a,4,5,10,11a-hexahydro-2H-benzo[b]pyrrolo[2,3-f][1,4]diazocine-2,11(3H)-dione], the Kinact/Kl rises from 790000 M⁻¹ s⁻¹ to 1.9e+06 M⁻¹ s⁻¹ (2.4-fold).

From patent US20250230165A1, “HETEROCYCLIC COMPOUNDS FOR USE IN THE TREATMENT OF CANCER” (ARTIOS PHARMA LIMITED, priority 2021, published 2025)
